Target: T1, integrin αvβ3 (Homo sapiens, UniProt P05106+P06756)
T1 construct: from tissue; host or cells: human placenta
Test: Integrin αvβ3 assay (competition with vitronectin for binding to solid-phase integrin αvβ3)
Details: integrin αvβ3 from human placenta, ranking in words only
Experimental: Integrin αvβ3 antagonists were identified and assessed using a test system based on competition between the natural integrin αvβ3 ligand vitronectin and the test substance for binding to integrin αvβ3 bound to a solid phase. […]
coat microtiter plates with 250 ng/ml integrin-αvβ3 in 0.05 M NaHCO3 pH 9.2; 0.1 ml/well; […]
saturate with 1% milk powder/assay buffer; 0.3 ml/well; 0.5 h/RT wash 3× with 0.05% Tween 20/assay buffer
Test substance in 0.1% milk powder/assay buffer, 50 μl/well+0 μg/ml or 2 μg/ml human vitronectin (Boehringer Ingelheim T007) in 0.1% milk powder/assay buffer, 50 μl/well; 1 h/RT […]
1 μg/ml anti human vitronectin antibody coupled to peroxidase (Kordia SAVN-APHRP) in 0.1%: milk powder/assay buffer; 0.1 ml/well; 1 h/RT […]
0.1 ml/well peroxidase substrate […]
stop reaction with 0.1 ml/well 2 M H2SO4 […]
measure the absorption at 450 nm
Integrin αvβ3: human placenta is solubilized with Nonidet, and integrin αvβ3 is affinity-purified on a GRGDSPK matrix (elution with EDTA). Contamination by integrin αIIbβ3 and human serum albumin, as well as the detergent and EDTA, are removed by anion exchange chromatography.
Assay buffer: 50 mM tris pH 7.5; 100 mM NaCl; 1 mM CaCl2; 1 mM MgCl2; 10 ΞM MnCl2 […]
Peroxidase substrate: mix 0.1 ml of TMB solution (42 mM TMB In DMSO) and 10 ml of substrate buffer (0.1 M Na acetate pH 4.9) and then add 14.7 pi of 3% H2O2. […]

## Cc1cn(CC(Cc2ccc3ccccc3c2)C(=O)O)c(=O)nc1N1CCC(Nc2nc3ccccc3[nH]2)CC1.O=C(O)C(F)(F)F (stereo not shown) [Compound I, 2-[(1-{1-[2-Carboxy-3-(2-naphthyl)propyl]-5-methyl-2-oxo-1,2-dihydropyrimidin-4-yl)-piperidin-4-yl)amino]-1H-benzimidazol-1-ium trifluoroacetate]
  IC50 values (concentration of the ligand at which 50% of the ligand is displaced): best result
